{"source": "PubChem BioAssay AID1259409", "about": "(Chemical Carcinogenesis Research Information System (CCRIS), 2018)", "origin": "cited, not measured here", "system": "rodent chemically induced tumor inhibition, incidence and multiplicity", "test": "CCRIS tumor inhibitor studies"}
{"compound": "Cc1c(C)c2c(c(C)c1O)CC[C@@](C)(CCC[C@H](C)CCC[C@H](C)CCCC(C)C)O2", "values": [{"measurement": "tumour outcome (control, treated, inhibition, significance)", "setting": "Carcinogen: 7,12-DIMETHYLBENZ[A]ANTHRACENE, 57-97-6, Dose [Inhibitor]: 0.2% IN HIGH SATURATED FAT DIET DAILY STARTING 29 D BEFORE CARCINOGEN TREATMENT AND CONTINUING FOR DURATION OF STUDY (ST, Route [Inhibitor]: ORAL, Species: RAT, Strain/Sex: SPRAGUE-DAWLEY/FEMALE, Target Tissue: Type of Lesion: MAMMARY GLAND: ADENOCARCINOMA, Dose [Carcinogen]: 10 MG IN 1 ML STRIPPED CORN OIL ONCE AT 50 D OF AGE, Promoter: NONE USED", "result": "65%, 65%, 0%, not calculated"}, {"measurement": "tumour outcome (control, treated, inhibition, significance)", "setting": "Carcinogen: 7,12-DIMETHYLBENZ[A]ANTHRACENE, 57-97-6, Dose [Inhibitor]: 0.2% IN LOW FAT DIET DAILY STARTING 29 D BEFORE CARCINOGEN TREATMENT AND CONTINUING FOR DURATION OF STUDY (STUDY DURATIO, Route [Inhibitor]: ORAL, Species: RAT, Strain/Sex: SPRAGUE-DAWLEY/FEMALE, Target Tissue: Type of Lesion: MAMMARY GLAND: ADENOCARCINOMA, Dose [Carcinogen]: 10 MG IN 1 ML STRIPPED CORN OIL ONCE AT 50 D OF AGE, Promoter: NONE USED", "result": "35%, 35%, 0%, not calculated"}, {"measurement": "tumour outcome (control, treated, inhibition, significance)", "setting": "Carcinogen: 7,12-DIMETHYLBENZ[A]ANTHRACENE, 57-97-6, Dose [Inhibitor]: 0.2% IN LOW FAT DIET THROUGHOUT THE EXPERIMENT, (STUDY DURATION: 32 WK), Route [Inhibitor]: ORAL, Species: RAT, Strain/Sex: SPRAGUE-DAWLEY/FEMALE, Target Tissue: Type of Lesion: MAMMARY GLAND: PARENCHYMAL CELL CARCINOMA, Dose [Carcinogen]: 10 MG IN 1 ML CORN OIL AT 50 D OF AGE ONCE, Promoter: NONE USED", "result": "37%, 32%, 14%, not calculated"}, {"measurement": "tumour outcome (control, treated, inhibition, significance)", "setting": "Carcinogen: 7,12-DIMETHYLBENZ[A]ANTHRACENE, 57-97-6, Dose [Inhibitor]: 0.2% IN SATURATED FAT DIET THROUGHOUT THE EXPERIMENT, (STUDY DURATION: 32 WK), Route [Inhibitor]: ORAL, Species: RAT, Strain/Sex: SPRAGUE-DAWLEY/FEMALE, Target Tissue: Type of Lesion: MAMMARY GLAND: PARENCHYMAL CELL CARCINOMA, Dose [Carcinogen]: 10 MG IN 1 ML CORN OIL AT 50 D OF AGE ONCE, Promoter: NONE USED", "result": "67%, 65%, 3%, not calculated"}, {"measurement": "tumour outcome (control, treated, inhibition, significance)", "setting": "Carcinogen: 7,12-DIMETHYLBENZ[A]ANTHRACENE, 57-97-6, Dose [Inhibitor]: 43 UG IN 80 µL ACETONE ONCE APPLIED ON BACK 5 MIN PRIOR TO CARCINOGEN DOSE (STUDY DURATION: 4 MO), Route [Inhibitor]: DERMAL, Species: MOUSE, Strain/Sex: ICR/FEMALE, Target Tissue: Type of Lesion: SKIN: TUMOR, Dose [Carcinogen]: 25 UG IN 80 µL ACETONE APPLIED ON BACK, Promoter: CROTON OIL, 8001-28-3", "result": "29/30 (97%), 27/30 (90%), 7%, not significant"}, {"measurement": "tumour outcome (control, treated, inhibition, significance)", "setting": "Carcinogen: 7,12-DIMETHYLBENZ[A]ANTHRACENE;57-97-6, Dose [Inhibitor]: 200 MG IN 1 ML OLIVE OIL ONCE 1 HR PRIOR TO CARCINOGEN DOSE(STUDY DURATION: 18 WK), Route [Inhibitor]: GAVAGE, Species: RAT, Strain/Sex: SPRAGUE-DAWLEY/FEMALE, Target Tissue: Type of Lesion: MAMMARY GLAND: TUMOR, Dose [Carcinogen]: 12 MG IN 1 ML OLIVE OIL ADMINISTERED 1 HR AFTER INHIBITOR, Promoter: NONE USED", "result": "27/34 (80%), 10/18 (56%), 30%, not significant"}, {"measurement": "tumour outcome (control, treated, inhibition, significance)", "setting": "Carcinogen: 7,12-DIMETHYLBENZ[A]ANTHRACENE, 57-97-6, Dose [Inhibitor]: 1000 UG APPLIED ONCE 5 MIN PRIOR TO CARCINOGEN DOSE (STUDY DURATION: 28 WK), Route [Inhibitor]: DERMAL, Species: MOUSE, Strain/Sex: CD-1/FEMALE, Target Tissue: Type of Lesion: SKIN: PAPILLOMA, Dose [Carcinogen]: 2.56 UG APPLIED ONCE 5 MIN AFTER INHIBITOR, Promoter: 12-O-TETRADECANOYLPHORBOL-13-ACETATE, 16561-29-8", "result": "82%, 68%, 17%, not calculated"}, {"measurement": "tumour outcome (control, treated, inhibition, significance)", "setting": "Carcinogen: METHYL(ACETOXYMETHYL)NITROSAMINE, 56856-83-8, Dose [Inhibitor]: 0, 5.8 NMOL IN DRINKING WATER BEGINNING 2 WK PRIOR TO CARCINOGEN AND CONTINUED FOR STUDY DURATION, (STUDY DURATION: 13 M, Dose [Inhibitor]: 0, 5.8 NMOL IN DRINKING WATER BEGINNING 2 WK PRIOR TO CARCINOGEN AND CONTINUED FOR STUDY DURATION, (STUDY DURATION: 13 M, Route [Inhibitor]: ORAL, Species: HAMSTER, Strain/Sex: SYRIAN/FEMALE, Target Tissue: Type of Lesion: ORAL CAVITY: TUMOR, Dose [Carcinogen]: 2 MG/KG BW IN DISTILLED WATER TO RIGHT CHEEK POUCH 2/MO FOR 6 MO (TOTAL DOSE 24 MG/KG), Promoter: NONE USED", "result": "14/15 (93%), 1/15 (7%), 92%, p<0.001"}, {"measurement": "tumour outcome (control, treated, inhibition, significance)", "setting": "Carcinogen: N-BIS(2-HYDROXYPROPYL)NITROSAMINE, 53609-64-6, Dose [Inhibitor]: 0, 1% IN DIET FOR 30 WK BEGINNING POST CARCINOGEN TREATMENT (STUDY DURATION: 32 WK), Route [Inhibitor]: ORAL, Species: RAT, Strain/Sex: F344/MALE, Target Tissue: Type of Lesion: BLADDER: ADENOMA, Dose [Carcinogen]: 0.1% IN DRINKING WATER FOR 2 WK, Promoter: NONE USED", "result": "5%, 15%, -200%, not calculated"}, {"measurement": "tumour outcome (control, treated, inhibition, significance)", "setting": "Carcinogen: N-BIS(2-HYDROXYPROPYL)NITROSAMINE, 53609-64-6, Dose [Inhibitor]: 0, 1% IN DIET FOR 30 WK BEGINNING POST CARCINOGEN TREATMENT (STUDY DURATION: 32 WK), Route [Inhibitor]: ORAL, Species: RAT, Strain/Sex: F344/MALE, Target Tissue: Type of Lesion: KIDNEY: TUMOR, Dose [Carcinogen]: 0.1% IN DRINKING WATER FOR 2 WK, Promoter: NONE USED", "result": "10%, 20%, -100%, not calculated"}]}
